Entries after “also recorded” stand apart in the source; their conditions may differ.
Tests used:
[1] = Dynamic vapor sorption (DVS) analysis; settings: for sorption/desorption behavior between cycles: DVS isotherm plots, two sorption/desorption cycles; for hygroscopicity (moisture sorption) / physical stability of the solid form as humidity is changed: DVS; for hygroscopicity (moisture sorption): relative humidity increased from 0% to 90%; for physical stability of the solid form as humidity is changed: up to 90% RH
[2] = Hydration-state stability of Form CS3 under different humidity (DSC/TGA, Karl Fischer titration); type: physicochemical
Description: Form CS3 has been further characterized using DSC/TGA and Karl Fischer titration. […] Dehydration, which is reversible, only occurs when the sample is exposed to a low humidity environment (e.g., less than about 10% RH). […] The DSC/TGA traces of crystalline complex Form CS3 of canagliflozin are in accordance with FIG. 17. The aforementioned physical stability characteristic of this embodiment makes the crystalline complex Form CS3 of canagliflozin a preferred solid form of canagliflozin of this invention.
(FIG. 20) is essentially the same as the XRPD pattern acquired at 25° C. (FIG. 15). Thus, from the XRPD patterns acquired at 25° C. and 100° C., it can be reasonably concluded that although Form CS3 is a monohydrate under ambient conditions (such as in an analytical chemistry laboratory), it can also exist as an anhydrate at low humidity, such as less than about 10% RH, and at temperatures higher than ambient temperature.

[3] = laboratory environmental conditions

SMILES	sorption/desorption behavior between cycles [1]	hygroscopicity (moisture sorption) [1]	physical stability of the solid form as humidity is changed [1]	physical stability (hydration state) ([2]; highly humid conditions)	hygroscopicity [2, 3]	physical stability (hydration state) [2, 3]	relative humidity at which (reversible) dehydration occurs ([2]; low humidity environment)
Cc1ccc([C@@H]2O[C@H](CO)[C@@H](O)[C@H](O)[C@H]2O)cc1Cc1ccc(-c2ccc(F)cc2)s1 [amorphous form of canagliflozin, (2S,3R,4R,5S,6R)-2-{3-[5-[4-fluoro-phenyl)-thiophen-2-ylmethyl]-4-methyl-phenyl}-6-hydroxymethyl-tetrahydro-pyran-3,4,5-triol]	second sorption/desorption cycle was different from the first cycle; also recorded: inconsistent between the two cycles	significantly hygroscopic	conversion or partial conversion from the amorphous state to a crystalline state; also recorded: undergoes physical change (from amorphous to crystalline)				
Cc1ccc([C@@H]2O[C@H](CO)[C@@H](O)[C@H](O)[C@H]2O)cc1Cc1ccc(-c2ccc(F)cc2)s1.O=C(O)[C@@H]1CCCN1 [Form CS1]	completely consistent between cycles	not hygroscopic	stable in the presence or absence of moisture				
Cc1ccc([C@@H]2O[C@H](CO)[C@@H](O)[C@H](O)[C@H]2O)cc1Cc1ccc(-c2ccc(F)cc2)s1 [Form CS3]				remains as a monohydrate	non-hygroscopic	stable as a monohydrate	less than 10 % RH

Reference: patent publication US20130237487A1, “CRYSTALLINE AND NON-CRYSTALLINE FORMS OF SGLT2 INHIBITORS” (SCINOPHARM TAIWAN, LTD., priority 2011, published 2013)
